We go through 18 compounds from patent publication US8722676B2, “Bicyclic piperazine compounds” (Genentech, Inc., priority 2011, dated 2014).

One assay has as its system production of CD69 by B lymphocytes in human whole blood activated with goat F(ab')2 anti-human IgM. In words: CD69 Whole Blood Assay (CD69 Hu Blood FACS). It is filed as cell-based. The settings on record: anti-IgM stimulated, 20 hour incubation, CD69+ of CD20+ cells, Table 1. From the text: A CD69 Whole Blood Assay can be conducted on Formula I compounds to determine the ability of compounds to inhibit the production of CD69 by B lymphocytes in human whole blood activated by crosslinking surface IgM with goat F(ab′)2 anti-human IgM (Example 907). CD69 is a type II C-type lectin involved in lymphocyte migration and cytokine secretion. CD69 expression represents one of the earliest available indicators of leukocyte activation and its rapid induction occurs through transcriptional activation (Vazquez et al (2009) Jour. of Immunology Published Oct. 19, 2009, doi:10.4049/jimmunol.0900839). Concentration-dependent inhibition of antigen receptor stimulation by selective Btk inhibitors induces cell surface expression of the lymphocyte activation marker CD69 (Honigberg et al (2010) Proc. Natl. Acad. Sci. 107(29):13075-13080). Thus, CD69 inhibition by selective Btk inhibitors may be correlated with therapeutic efficacy of certain B-cell disorders.
Human blood is obtained from healthy volunteers, with the following restrictions: 1 week drug-free, non-smokers. Blood (approximately 20 mls to test 8 compounds) is collected by venipuncture into Vacutainer® (Becton, Dickinson and Co.) tubes with sodium heparin.
Solutions of Formula I compounds at 10 mM in DMSO are diluted 1:10 in 100% DMSO, then are diluted by three-fold serial dilutions in 100% DMSO for a ten point dose-response curve. The compounds are further diluted 1:10 in PBS and then an aliquot of 5.5 μl of each compound is added in duplicate to a 2 ml 96-well plate; 5.5 μl of 10% DMSO in PBS is added as control and no-stimulus wells. Human whole blood—HWB (100 μl) is added to each well. After mixing the plates are incubated at 37° C., 5% CO2, 100% humidity for 30 minutes. Goat F(ab′)2 anti-human IgM (10 μl of a 500 μg/ml solution, 50 μg/ml final) is added to each well (except the no-stimulus wells) with mixing and the plates are incubated for an additional 20 hours. At the end of the 20 hour incubation, samples are incubated with fluorescent labeled antibodies for 30 minutes, at 37° C., 5% CO2, 100% humidity. Include induced control, unstained and single stains for compensation adjustments and initial voltage settings. Samples are then lysed with PharM Lyse™ (BD Biosciences Pharmingen) according to the manufacturer's instructions. Samples are then transferred to a 96 well plate suitable to be run on the BD Biosciences HTS 96 well system on the LSRII machine. Data acquired and Mean Fluorescence Intensity values were obtained using BD Biosciences DIVA Software. Results are initially analyzed by FACS analysis software (Flow Jo).
`CN1CCN(c2ccc(Nc3cc(-c4cc(F)cc(N5CCn6c(cc7c6CCCC7)C5=O)c4CO)cn4ccnc34)nc2)CC1` [Compound 101, 2-(5-Fluoro-2-(hydroxymethyl)-3-(8-(5-(4-methylpiperazin-1-yl)pyridin-2-ylamino)imidazo[1,2-a]pyridin-6-yl)phenyl)-3,4,6,7,8,9-hexahydropyrazino[1,2-a]indol-1(2H)-one] gave a CD69 Hu Blood FACS IC70 of 7 nM.

In turn, `O=C1c2cc3c(n2CCN1c1cc(F)cc(-c2cc(Nc4ccc(N5CCN(C6COC6)CC5)cn4)c4nccn4c2)c1CO)CCCC3` [Compound 102, 2-(5-Fluoro-2-(hydroxymethyl)-3-(8-(5-(4-(oxetan-3-yl)piperazine-1-yl)pyridine-2-ylamino)imidazo[1,2-a]pyridin-6-yl)phenyl)-3,4,6,7,8,9-hexahydro-pyrazino[1,2-a]indol-1(2H)-one] had a CD69 Hu Blood FACS IC70 of 11 nM.

Consider `CN1CCN(c2ccc(Nc3cc(-c4cc(F)cc(N5CCc6c(sc7c6CCCC7)C5=O)c4CO)cn4ccnc34)nc2)CC1` [Compound 103, 5-[5-Fluoro-2-(hydroxymethyl)-3-{(8-(5-(4-methylpiperazin-1-yl)pyridine-2-ylamino)imidazo[1,2-a]pyridin-6-yl)}phenyl]-8-thia-5-azatricyclo[7.4.0.0^2,7]trideca-1(9),2(7)-dien-6-one], for which the CD69 Hu Blood FACS IC70 came out at 319 nM.

As for `CN1CCN(c2ccc(Nc3cc(-c4cc(F)cc(N5CCn6c(cc7c6CCCC7)C5=O)c4CO)nn4ccnc34)nc2)CC1` [Compound 104, 2-(5-Fluoro-2-(hydroxymethyl)-3-(8-(5-(4-methylpiperazin-1-yl)pyridin-2-ylamino)imidazo[1,2-b]pyridazin-6-yl)phenyl)-3,4,6,7,8,9-hexahydropyrazino[1,2-a]indol-1(2H)-one], the CD69 Hu Blood FACS IC70 came to 96 nM.

Consider `O=C1c2cc3c(n2CCN1c1cc(F)cc(-c2cc(Nc4ccc(N5CCN(C6COC6)CC5)cn4)c4nccn4n2)c1CO)CCCC3` [Compound 105, 2-(5-Fluoro-2-(hydroxymethyl)-3-(8-(5-(4-(oxetan-3-yl)piperazin-1-yl)pyridin-2-ylamino)imidazo[1,2-b]pyridazin-6-yl)phenyl)-3,4,6,7,8,9-hexahydro-pyrazino[1,2-a]indol-1(2H)-one], for which the CD69 Hu Blood FACS IC70 stood at 49 nM.

`CN1CCN(c2ccc(Nc3nc(-c4cc(F)cc(N5CCn6c(cc7c6CCCC7)C5=O)c4CO)cn4ccnc34)nc2)CC1` [Compound 106, 2-(5-Fluoro-2-(hydroxymethyl)-3-(8-(5-(4-methylpiperazin-1-yl)pyridin-2-ylamino)imidazo[1,2-a]pyrazin-6-yl)phenyl)-3,4,6,7,8,9-hexahydropyrazino[1,2-a]indol-1(2H)-one] had a CD69 Hu Blood FACS IC70 of 814 nM.

`O=C1c2cc3c(n2CCN1c1cc(F)cc(-c2cn4ccnc4c(Nc4ccc(N5CCN(C6COC6)CC5)cn4)n2)c1CO)CCCC3` [Compound 107, 2-(5-Fluoro-2-(hydroxymethyl)-3-(8-(5-(4-(oxetan-3-yl)piperazin-1-yl)pyridin-2-ylamino)imidazo[1,2-a]pyrazin-6-yl)phenyl)-3,4,6,7,8,9-hexahydro-pyrazino[1,2-a]indol-1(2H)-one] showed a CD69 Hu Blood FACS IC70 of 939 nM.

The compound `O=C1c2cc3c(n2CCN1c1cc(F)cc(-c2cc(Nc4ccc(N5CCN(C6COC6)CC5)cn4)c4ncnn4c2)c1CO)CCCC3` [Compound 108, 2-(5-Fluoro-2-(hydroxymethyl)-3-(8-(5-(4-(oxetan-3-yl)piperazin-1-yl)pyridin-2-ylamino)-[1,2,4]triazolo[1,5-a]pyridin-6-yl)phenyl)-3,4,6,7,8,9-hexahydropyrazino[1,2-a]indol-1(2H)-one] had a CD69 Hu Blood FACS IC70 of 58 nM.

Turning to `Cn1cnc2c(Nc3ccc(N4CCN(C5COC5)CC4)cn3)cc(-c3cc(F)cc(N4CCn5c(cc6c5CCCC6)C4=O)c3CO)cc21` [Compound 109, 2-(5-Fluoro-2-(hydroxymethyl)-3-(3-methyl-7-(5-(4-(oxetan-3-yl)piperazin-1-yl)pyridin-2-ylamino)-3H-benzo[d]imidazol-5-yl)phenyl)-3,4,6,7,8,9-hexahydropyrazino[1,2-a]indol-1(2H)-one], the CD69 Hu Blood FACS IC70 came out at 1300 nM.

Turning to `CC1(C)Cc2cc3n(c2C1)CCN(c1cc(F)cc(-c2cc(Nc4ccc(N5CCN(C6COC6)CC5)cn4)c4nccn4n2)c1CO)C3=O` [Compound 110, 10-[5-Fluoro-2-(hydroxymethyl)-3-(8-(5-(4-(oxetan-3-yl)piperazin-1-yl)pyridin-2-ylamino)imidazo[1,2-b]pyridazin-6-yl)phenyl]-4,4-dimethyl-1,10-diazatricyclo[6.4.0.0^2,6]dodeca-2(6),7-dien-9-one], the CD69 Hu Blood FACS IC70 amounted to 15 nM.

In the case of `O=C1c2sc3c(c2CCN1c1cc(F)cc(-c2cc(Nc4ccc(N5CCN(C6COC6)CC5)cn4)c4nccn4n2)c1CO)CCCC3` [Compound 111, 5-[5-Fluoro-2-(hydroxymethyl)-3-(8-(5-(4-(oxetan-3-yl)piperazin-1-yl)pyridin-2-ylamino)imidazo[1,2-b]pyridazin-6-yl)phenyl]-8-thia-5-azatricyclo[7.4.0.0^2,7]trideca-1(9),2(7)-dien-6-one], the CD69 Hu Blood FACS IC70 was 313 nM.

`O=c1c2sc3c(c2cnn1-c1cc(F)cc(-c2cc(Nc4ccc(N5CCN(C6COC6)CC5)cn4)c4nccn4n2)c1CO)CCCC3` [Compound 112, 5-[5-Fluoro-2-(hydroxymethyl)-3-(8-(5-(4-(oxetan-3-yl)piperazin-1-yl)pyridin-2-ylamino)imidazo[1,2-b]pyridazin-6-yl)phenyl]-8-thia-4,5-diazatricyclo-[7.4.0.0^2,7]trideca-1(9),2(7),3-trien-6-one] had a CD69 Hu Blood FACS IC70 of 126 nM.

In turn, `CC1(C)Cc2sc3c(c2C1)CCN(c1cc(F)cc(-c2cc(Nc4ccc(N5CCN(C6COC6)CC5)cn4)c4nccn4n2)c1CO)C3=O` [Compound 113, 10-[5-Fluoro-2-(hydroxymethyl)-3-(8-(5-(4-(oxetan-3-yl)piperazin-1-yl)pyridine-2-ylamino)imidazo[1,2-b]pyridazin-6-yl)phenyl]-4,4-dimethyl-7-thia-10-azatricyclo[6.4.0.0^2,6]dodeca-1(8),2(6)-dien-9-one] came in with a CD69 Hu Blood FACS IC70 of 12 nM.

In turn, `O=C1c2cc3c(n2CCN1c1nccc(-c2cc(Nc4ccc(N5CCN(C6COC6)CC5)cn4)c4nccn4n2)c1CO)CCCC3` [Compound 114, 2-(3-(Hydroxymethyl)-4-(8-(5-(4-(oxetan-3-yl)piperazin-1-yl)pyridin-2-ylamino)imidazo[1,2-b]pyridazin-6-yl)pyridin-2-yl)-3,4,6,7,8,9-hexahydropyrazino[1,2-a]indol-1(2H)-one] showed a CD69 Hu Blood FACS IC70 of 118 nM.

Staying with this assay, now noted: anti-IgM stimulated, 20 hour incubation, CD69+ of CD20+ cells, Table 2.
For the compound `O=C1c2cc3c(n2CCN1c1cc(F)cc(-c2cc(Nc4ccc(N5CCN(C6COC6)CC5)cn4)c4nc[nH]c4c2)c1CO)CCCC3` [Compound 116, 2-[5-fluoro-2-(hydroxymethyl)-3-[7-[[5-[4-(oxetan-3-yl)piperazin-1-yl]-2-pyridyl]amino]-3H-benzimidazol-5-yl]phenyl]-3,4,6,7,8,9-hexahydropyrazino[1,2-a]indol-1-one], the CD69 Hu Blood FACS IC70 was 1300 nM.

In the case of `O=C1c2cc3c(n2CCN1c1cc(F)cc(-c2nc(Nc4ccc(N5CCN(C6COC6)CC5)cc4)c4nc[nH]c4n2)c1CO)CCCC3` [Compound 117, 2-[5-fluoro-2-(hydroxymethyl)-3-[6-[4-[4-(oxetan-3-yl)piperazin-1-yl]anilino]-9H-purin-2-yl]phenyl]-3,4,6,7,8,9-hexahydropyrazino[1,2-a]indol-1-one], the CD69 Hu Blood FACS IC70 worked out at 812 nM.

The compound `O=C1c2cc3c(n2CCN1c1nccc(-c2cc(Nc4ccc(N5CCN(C6COC6)CC5)cn4)c4nc[nH]c4c2)c1CO)CCCC3` [Compound 118, 2-[3-(hydroxymethyl)-4-[7-[[5-[4-(oxetan-3-yl)piperazin-1-yl]-2-pyridyl]amino]-3H-benzimidazol-5-yl]-2-pyridyl]-3,4,6,7,8,9-hexahydropyrazino[1,2-a]indol-1-one] displayed a CD69 Hu Blood FACS IC70 of 4300 nM.

Compound `O=C1c2sc3c(c2CCN1c1cc(F)cc(-c2nc(Nc4ccc(N5CCN(C6COC6)CC5)cc4)c4nc[nH]c4n2)c1CO)CCCC3` [Compound 119, 2-[5-fluoro-2-(hydroxymethyl)-3-[6-[4-[4-(oxetan-3-yl)piperazin-1-yl]anilino]-9H-purin-2-yl]phenyl]-3,4,5,6,7,8-hexahydrobenzothiopheno[2,3-c]pyridin-1-one] had a CD69 Hu Blood FACS IC70 of 727 nM.
